Assay results from patent US20140213506A1, “THYMOSIN ALPHA PEPTIDE FOR PREVENTING, REDUCING THE SEVERITY OF, AND TREATING INFECTION” (priority 2011, published 2014).
No end group written: not given here.

Legend:
[1] = TA1 0.3-1.2 mg/kg/dose i.p. with Fluvirin
[2] = TA1 0.28 or 0.57 mg/kg s.c. with vaccine
Procedure: The vaccine (either Agrippal influPozzi seasonal vaccine, non-adjuvanted, or Fluad, MF-59 adjuvanted) was administered via intramuscular injection to the right leg at a full human dose of 0.5 mL. TA1 (0.285 or 0.570 mg/kg/dose) was administered by the subcutaneous route at a dose volume that, using a scaling factor for ferret/human dosing, corresponding to approximate human doses of 3.2 or 6.4 mg/kg. Animals were observed twice daily for mortality, general health, and both local and systemic signs of toxicity and illness as well as behavior under the responsibility of a professional veterinarian. Body weights were recorded prior to dosing only.

[3] = cited from earlier work
[4] = cited from earlier work; remark: listed apart in the source
[5] = doses as high as 800 times the recommended human dose; cited from earlier work

In the case of “Ac-SDAAVDTSSEITTKDLKEKKEVVEEAEN [TA1, (N-acetyl)-Ser-Asp-Ala-Ala-Val-Asp-Thr-Ser-Ser-Glu-11e-Thr-Thr-Lys-Asp-Leu-Lys-Glu-Lys-Lys-Glu-Val-Val-Glu-Glu-Ala-Glu-Asn-OH]”, the “clinical/cageside observations and body weight effects” value [1] is reported as “no test article-related clinical/cageside observations or body weight effects”, the survival [1] is reported as “All animals survived until scheduled termination” and the “safety and tolerability, cage-side observations” value [2] is reported as “safe and well-tolerated”. For the same substance, the “worsening of side effects in combination” value ([3]; TA1 combined with other agents such as interferon and chemotherapy) was “Nor has there been any worsening of side effects”, the drug-related side effects ([3]; more than 3,000 patients (adults, elderly, children; hepatitis B and C, primary immunodeficiency, cancers)) was “virtually no drug-related side effects” and the Peak plasma levels ([4]; after injection of 3.2 mg of TA1 (about 40 μg/kg)) was “approximately 100 ng/ml”. For the same substance, the “half-life of TA1 in the circulation” value ([4]; in vivo) was “about 2 hours”, the plasma half-life ([4]; subcutaneously injected TA1) was “about two” and the adverse clinical signs [5] was “no evidence of adverse clinical signs”.
